Test results as given in patent publication US9273043B2, “TRPV1 antagonists including dihydroxy substituent and uses thereof” (Purdue Pharma L.P., priority 2011, dated 2016).

Experiments:
human TRPV1 [1] = molecular target: T1, human TRPV1 (Homo sapiens (Human), UniProt Q8NER1); test: pH-based assay, Protocol 2, TRPV1/CHO cells (hpH-CHO), Fura-2 Ca2+ influx; format: cell-based; conditions: pH 5.0-5.1 (H2SO4), mean ± SEM
Description: For Protocol 2, a Chinese Hamster Ovary cell line (CHO) that has been engineered to constitutively express human recombinant TRPV1 was used (TRPV1/CHO cells). The TRPV1/CHO cell line was generated as described below.
TRPV1/CHO cells were seeded in the 96-well clear-bottom black-wall plate (Nunc) at densities of 1-2×10^4 cells/well and grown in 100 μL of culture medium (alpha-MEM supplemented with 10% FBS, 20 mM HEPES, 1 mg/mL geneticin and 1% antibiotic-antimycotic mixed stock solution) for 1-2 days before the experiment.
(1) Culture medium was removed using an 8-channel-pipette (Rainin, USA) from the 96-well plate and the wells were refilled with 100 μL of loading buffer (20 mM HEPES, 115 mM NaCl, 5.4 mM KCl, 0.8 mM MgCl2, 1.8 mM CaCl2, 13.8 mM D-glucose, 2.5 mM probenecid, pH 7.4) containing 5 μM Fura-2 AM (Dojin, Japan).
(2) The 96-well plate was incubated at 37° C. for 45 min.
(3) The loading buffer was removed from each well. The cells were subsequently washed twice with 150 μL of measuring buffer (20 mM HEPES, 115 mM NaCl, 5.4 mM KCl, 0.8 mM MgCl2, 5.0 mM CaCl2, 13.8 mM D-glucose, 0.1% BSA, pH 7.4) (no probenecid). The wells were then refilled with 80 μL of measuring buffer.
(4) After an incubation at 4° C. for 15 min, the 96-well plate was transferred to a model FDSS-3000 plate reader apparatus (Hamamatsu Photonics K.K., Japan).
(5) The Fura-2 fluorescent intensity was monitored at a wavelength of 340 nm and at 380 nm, respectively, at a rate of 0.5 Hz for a total of 240 seconds. After 16 time points (32 sec) of baseline detection, 20 μL of agonist solution was added to each well. The final volume was 100 μL/well.
(6) Fluorescence intensity ratio refers to the fluorescence intensity at 340 nm over the fluorescence intensity at 380 nm at a particular time point. The baseline was set as the average of the fluorescent intensity ratios for the first 16 time points before the addition of agonist solution. The maximum response was the highest fluorescent intensity ratio during the 60 time points following addition of agonist solution.
(7) Maximal signal ratios from each well were calculated as output data using the FDSS-3000 analysis program. Data were analyzed using Excel (Microsoft) and XLfit (idbs) software.
In an “agonist plate,” two different agonist solutions with different H2SO4 concentrations were used for the pH assay (see, e.g., FIG. 3A of U.S. Patent Application Publication No. US 2009/0170868 A1). For the first half of a 96-well plate one agonist solution was used; for the second half the other agonist solution was used. The agonist solutions were obtained by diluting sulfuric acid (1M H2SO4) with measuring buffer. The concentrations for the two agonist solutions were determined as described above in Section 2 of Protocol 2.
The sulfuric acid concentrations between the two agonist solutions differed by 0.5 mM. In the experiment described in Section 2 of Protocol 2, the sulfuric acid concentrations in the agonist solutions were determined to be 16 mM and 16.5 mM, respectively. After 1:4 dilution of the agonist solutions, the final sulfuric acid concentration was 3.2 mM and 3.3 mM, respectively. The resulting pH value for the pH assay was 5.0 to 5.1.
Test compounds were dissolved in DMSO to yield 1 mM stock solutions. The stock solutions were further diluted using DMSO in […] serial dilution steps with 6 points (1000, 250, 62.5, 15.625, 3.9062, and 0.977 μM). The thereby-obtained solutions were further diluted in measuring buffer (1:100) as 10× stock serial dilutions with a DMSO concentration of 1%. 10 μL of a 10× stock was added into each well of an “antagonist plate” (see step 3.3.(4) below). Thus, the final concentrations of antagonists was as follows: 0.977, 3.906, 15.63, 62.5, 250, and 1000 nM containing 0.1% DMSO (see, e.g., FIG. 3B of U.S. Patent Application Publication No. US 2009/0170868 A1).
Steps (1) and (2) of this Assay were the same as steps 2.2.(1) and 2.2.(2), respectively, of Protocol 2. […]

human TRPV1 [2] = molecular target: T1, human TRPV1; test: Capsaicin-based assay, Protocol 2, TRPV1/CHO cells (hCAP-CHO), Fluo-4 FLIPR; format: cell-based; conditions: 100 nM capsaicin, mean ± SEM
Source text: The TRPV1/CHO cell line was generated as described below. […] The resulting PCR products were purified from agarose gels using Gel Band Purification Kit (GE Healthcare Bioscience) and were subcloned into pCR-Blunt vector (Invitrogen). The cloned cDNA was fully sequenced using a fluorescent dye-terminator reagent (BigDye Terminator ver3.1 Cycle Sequencing Kit, Applied Biosystems) and ABI Prism 3100 genetic analyzer (Applied Biosystems). The pCR-Blunt vector containing the hTRPV1 cDNA was subjected to restriction digestion with EcoR1. The restriction fragment was subcloned into expression vector pcDNA3.1(-) (Invitrogen) and named pcDNA3.1(-)-hVR1 plasmid. The sequence of the cDNA encoding TRPV1 is available at GenBank accession number AJ277028. […] The cells were transfected with the pcDNA3.1(-)-hVR1 plasmid using FuGENE6 (Roche) according to the manufacturer's protocol. 24 hr after transfection, neomycin-resistant cells were selected using 1 mg/mL G418 (Nacalai Tesque). […] The cells expressing hTRPV1 were cultured in the growth medium supplemented with 1 mg/mL G418. […] Capsaicin-based Assay: […] Subsequently, the cells were loaded by incubation in 0.1 mL of wash buffer containing Fluo-4 at 3 μM final concentration. After 1 hour, the cells were washed twice with 0.2 mL wash buffer and resuspended in 0.1 mL wash buffer. The plates were then transferred to a Fluorescence Imaging Plate Reader (Molecular Devices). Fluorescence intensity was monitored for 15 seconds to establish a baseline. […] The final concentration of the compound was adjusted to range from 100 μM to 1.5625 μM. […] Data were collected over the entire time course and analyzed using Excel and the curve-fitting formula GraphPad Prism.

T1 sequence (Q8NER1 whole entry, looked up): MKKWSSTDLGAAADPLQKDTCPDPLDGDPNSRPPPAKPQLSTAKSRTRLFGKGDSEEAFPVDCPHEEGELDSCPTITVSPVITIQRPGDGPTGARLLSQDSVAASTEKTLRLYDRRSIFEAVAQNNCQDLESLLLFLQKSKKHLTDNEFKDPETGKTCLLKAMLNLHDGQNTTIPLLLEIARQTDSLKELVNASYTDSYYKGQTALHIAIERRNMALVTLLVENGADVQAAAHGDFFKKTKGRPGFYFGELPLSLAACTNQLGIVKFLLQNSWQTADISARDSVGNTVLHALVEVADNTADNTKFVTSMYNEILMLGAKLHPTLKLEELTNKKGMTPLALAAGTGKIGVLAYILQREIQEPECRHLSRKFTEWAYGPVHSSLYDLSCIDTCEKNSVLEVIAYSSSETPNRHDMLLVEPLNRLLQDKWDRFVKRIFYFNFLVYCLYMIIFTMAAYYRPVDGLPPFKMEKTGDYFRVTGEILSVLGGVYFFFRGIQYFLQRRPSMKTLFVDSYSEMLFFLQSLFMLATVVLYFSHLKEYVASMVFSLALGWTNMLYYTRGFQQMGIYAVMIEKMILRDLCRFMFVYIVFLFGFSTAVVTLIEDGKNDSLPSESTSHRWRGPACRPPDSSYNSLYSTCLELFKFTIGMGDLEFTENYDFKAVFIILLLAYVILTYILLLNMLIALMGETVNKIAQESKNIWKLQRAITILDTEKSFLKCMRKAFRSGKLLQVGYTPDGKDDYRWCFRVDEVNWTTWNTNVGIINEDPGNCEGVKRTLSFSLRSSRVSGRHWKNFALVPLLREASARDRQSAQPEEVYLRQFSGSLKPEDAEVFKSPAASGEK

IC50 (human TRPV1 [1]) | IC50 (human TRPV1 [2]) | SMILES
6880 nM | 199 ± 38 nM | C[C@@H]1CN(C(=O)Nc2nc3ccccc3s2)CCN1c1ncc([C@@H](O)[C@@H](C)O)cc1F [B122(o), (R)—N-(benzo[d]thiazol-2-yl)-4-{5-[(1R,2R)-1,2-dihydroxypropyl]-3-fluoropyridin-2-yl}-3-methylpiperazine-1-carboxamide]
1020 nM | 506 ± 155 nM | C[C@@H](O)[C@H](O)c1cnc(N2CCN(C(=O)Nc3nc4ccccc4s3)C[C@@H]2C)c(F)c1 [B122(p), (S)—N-(benzo[d]thiazol-2-yl)-4-{5-[(1R,2R)-1,2-dihydroxypropyl]-3-fluoropyridin-2-yl}-3-methylpiperazine-1-carboxamide]
303 nM | 194 ± 49 nM | C[C@H](O)[C@@H](O)c1cnc(N2CCN(C(=O)Nc3nc4ccc(F)cc4s3)C[C@H]2C)c(F)c1 [B125(j), (R)-4-{5-[(1S,2S)-1,2-dihydroxypropyl]-3-fluoropyridin-2-yl}-N-(6-fluorobenzo[d]thiazol-2-yl)-3-methylpiperazine-1-carboxamide]
398 ± 152 nM | 309 ± 105 nM | C[C@@H]1CN(C(=O)Nc2nc3ccc(F)cc3s2)CCN1c1ncc([C@@H](O)[C@@H](C)O)cc1F [B125(o), (R)-4-{5-[(1R,2R)-1,2-dihydroxypropyl]-3-fluoropyridin-2-yl}-N-(6-fluorobenzo[d]thiazol-2-yl)-3-methylpiperazine-1-carboxamide]
211 ± 50 nM | 171 ± 1 nM | C[C@@H](O)[C@H](O)c1cnc(N2CCN(C(=O)Nc3nc4ccc(F)cc4s3)C[C@@H]2C)c(F)c1 [B125(p), (S)-4-Z{5-[(1R,2R)-1,2-dihydroxypropyl]-3-fluoropyridin-2-yl}-N-(5-fluorobenzo[d]thiazol-2-yl)-3-methylpiperazine-1-carboxamide]
439 ± 71 nM | 344 ± 116 nM | C[C@H](O)[C@@H](O)c1cnc(N2CCN(C(=O)Nc3nc4cc(F)ccc4s3)C[C@H]2C)c(F)c1 [B155(j), (R)-4-{5-[(1S,2S)-1,2-dihydroxypropyl]-3-fluoropyridin-2-yl}-N-(5-fluorobenzo[d]thiazol-2-yl)-3-methylpiperazine-1-carboxamide]
1230 ± 595 nM | 249 ± 34 nM | C[C@@H]1CN(C(=O)Nc2nc3cc(F)ccc3s2)CCN1c1ncc([C@@H](O)[C@@H](C)O)cc1F [B155(o), (R)-4-{5-[(1R,2R)-1,2-dihydroxypropyl]-3-fluoropyridin-2-yl}-N-(5-fluorobenzo[d]thiazol-2-yl)-3-methylpiperazine-1-carboxamide]
171 ± 29 nM | 146 ± 52 nM | C[C@@H]1CN(C(=O)Nc2nc3cc(F)c(F)cc3s2)CCN1c1ncc([C@@H](O)[C@@H](C)O)cc1F [B158(o), (R)—N-(5,6-difluorobenzo[d]thiazol-2-yl)-4-{5-[(1R,2R)-1,2-dihydroxypropyl]-3-fluoropyridin-2-yl}-3-methylpiperazine-1-carboxamide]
